Data reported in ChEMBL document CHEMBL1201862, “PubChem BioAssay data set” (2004).
Values belong to the compound of their own block, whether it stands above or below them. Calls of active or inactive are those of the source.

Legend:
Procathepsin L = Procathepsin L (Homo sapiens, UniProt P07711)
Aspartyl aminopeptidase = molecular target: T1, Aspartyl aminopeptidase (Plasmodium falciparum 3D7, UniProt Q8I2J3)
T1 sequence (Q8I2J3 whole entry): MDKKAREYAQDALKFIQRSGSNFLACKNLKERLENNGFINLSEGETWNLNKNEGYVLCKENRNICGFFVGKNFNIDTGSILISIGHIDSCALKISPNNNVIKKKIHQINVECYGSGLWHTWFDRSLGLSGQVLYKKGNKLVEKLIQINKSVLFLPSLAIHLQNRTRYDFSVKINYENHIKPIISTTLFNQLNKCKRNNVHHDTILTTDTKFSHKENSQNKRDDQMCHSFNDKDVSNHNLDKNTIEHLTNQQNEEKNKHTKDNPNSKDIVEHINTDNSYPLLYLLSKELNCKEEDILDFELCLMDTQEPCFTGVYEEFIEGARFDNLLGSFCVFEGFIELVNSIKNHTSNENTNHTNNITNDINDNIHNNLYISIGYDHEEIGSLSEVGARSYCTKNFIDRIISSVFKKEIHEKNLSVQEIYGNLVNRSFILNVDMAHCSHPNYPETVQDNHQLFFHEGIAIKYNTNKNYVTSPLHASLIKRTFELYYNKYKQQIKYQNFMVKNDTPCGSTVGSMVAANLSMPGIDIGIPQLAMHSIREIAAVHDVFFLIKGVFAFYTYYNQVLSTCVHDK

[1] = antiviral protection against BTV-induced cell death – arbovirus, BSR cells, confirmation (AID 1250); type: functional;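 also: protection from viral cytopathic effect measured as cell viability by ATP luminescence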
Beta-galactosidase = Beta-galactosidase (Escherichia coli, UniProt Q8VNN2); test: detection-enzyme interference by beta-gal modulators – biochemical, E. coli enzyme, set 3, artefact control for CCR6 antagonist project, dose response (AID 504712); type: functional
Sequence of Beta-galactosidase (Q8VNN2 whole entry): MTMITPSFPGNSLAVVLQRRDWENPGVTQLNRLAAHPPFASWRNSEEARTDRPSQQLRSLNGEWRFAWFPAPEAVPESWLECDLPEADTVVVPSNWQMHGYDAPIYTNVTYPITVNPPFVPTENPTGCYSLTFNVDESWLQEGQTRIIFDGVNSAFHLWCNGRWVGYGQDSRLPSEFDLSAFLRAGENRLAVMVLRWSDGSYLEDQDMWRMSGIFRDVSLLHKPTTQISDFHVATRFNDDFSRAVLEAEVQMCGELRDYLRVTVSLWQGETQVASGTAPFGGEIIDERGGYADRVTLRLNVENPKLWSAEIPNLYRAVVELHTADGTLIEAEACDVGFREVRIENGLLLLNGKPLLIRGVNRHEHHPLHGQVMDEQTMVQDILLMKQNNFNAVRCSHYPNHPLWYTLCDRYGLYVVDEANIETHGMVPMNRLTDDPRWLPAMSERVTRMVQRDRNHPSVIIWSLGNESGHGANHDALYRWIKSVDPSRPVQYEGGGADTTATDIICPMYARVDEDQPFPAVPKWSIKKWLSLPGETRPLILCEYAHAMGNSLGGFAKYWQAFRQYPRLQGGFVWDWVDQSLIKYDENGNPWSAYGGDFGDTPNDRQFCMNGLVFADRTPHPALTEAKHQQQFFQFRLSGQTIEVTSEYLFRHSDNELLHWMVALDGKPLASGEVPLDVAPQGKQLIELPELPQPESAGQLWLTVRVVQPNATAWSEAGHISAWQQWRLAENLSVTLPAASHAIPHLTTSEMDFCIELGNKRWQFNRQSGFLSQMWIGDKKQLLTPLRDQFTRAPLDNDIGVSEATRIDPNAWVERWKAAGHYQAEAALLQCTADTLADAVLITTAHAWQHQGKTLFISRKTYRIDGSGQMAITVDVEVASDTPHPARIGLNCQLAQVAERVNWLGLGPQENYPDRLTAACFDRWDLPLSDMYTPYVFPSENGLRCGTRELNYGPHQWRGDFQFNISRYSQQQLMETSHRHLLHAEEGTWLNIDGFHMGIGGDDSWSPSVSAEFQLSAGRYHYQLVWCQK

[2] = molecular target: Alkaline phosphatase, placental type (Homo sapiens, UniProt P05187); test: human placental alkaline phosphatase inhibition – biochemical, luminescence, confirmation (AID 1512); type: functional
Sequence of Alkaline phosphatase, placental type (P05187 whole entry): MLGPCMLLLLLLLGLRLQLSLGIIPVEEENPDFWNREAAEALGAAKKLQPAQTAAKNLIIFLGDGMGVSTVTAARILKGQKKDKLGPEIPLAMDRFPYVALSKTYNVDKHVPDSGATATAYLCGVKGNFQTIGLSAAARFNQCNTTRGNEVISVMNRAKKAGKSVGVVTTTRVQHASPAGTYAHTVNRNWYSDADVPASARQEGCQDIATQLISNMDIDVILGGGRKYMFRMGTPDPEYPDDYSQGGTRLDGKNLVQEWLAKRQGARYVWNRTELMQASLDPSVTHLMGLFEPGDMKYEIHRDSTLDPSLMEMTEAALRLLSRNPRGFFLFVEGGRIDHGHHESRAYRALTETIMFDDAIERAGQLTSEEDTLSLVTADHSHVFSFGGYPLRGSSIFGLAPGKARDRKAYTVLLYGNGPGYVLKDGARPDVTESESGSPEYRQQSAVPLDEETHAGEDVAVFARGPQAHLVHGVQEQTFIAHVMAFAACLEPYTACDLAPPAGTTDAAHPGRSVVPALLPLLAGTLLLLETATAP

[3] = molecular target: Glyceraldehyde-3-phosphate dehydrogenase (Homo sapiens, UniProt P04406)
Sequence of Glyceraldehyde-3-phosphate dehydrogenase (P04406 whole entry): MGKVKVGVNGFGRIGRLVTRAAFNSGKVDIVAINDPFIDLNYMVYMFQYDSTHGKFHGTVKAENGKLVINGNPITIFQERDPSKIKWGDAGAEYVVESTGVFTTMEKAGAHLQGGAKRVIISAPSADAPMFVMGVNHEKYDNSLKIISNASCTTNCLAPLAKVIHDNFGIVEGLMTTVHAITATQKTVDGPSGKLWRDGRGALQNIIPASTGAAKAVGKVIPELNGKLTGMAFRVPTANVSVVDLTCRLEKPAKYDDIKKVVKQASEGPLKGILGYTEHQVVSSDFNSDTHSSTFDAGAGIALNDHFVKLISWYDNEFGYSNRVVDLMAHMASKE

[4] = molecular target: T2, Alkaline phosphatase, tissue-nonspecific isozyme (Homo sapiens, UniProt P05186); test: potency against alkaline phosphatase TNAP – biochemical, luminescent, dose response, SAR follow-up (AID 1056)
T2 sequence (P05186 whole entry): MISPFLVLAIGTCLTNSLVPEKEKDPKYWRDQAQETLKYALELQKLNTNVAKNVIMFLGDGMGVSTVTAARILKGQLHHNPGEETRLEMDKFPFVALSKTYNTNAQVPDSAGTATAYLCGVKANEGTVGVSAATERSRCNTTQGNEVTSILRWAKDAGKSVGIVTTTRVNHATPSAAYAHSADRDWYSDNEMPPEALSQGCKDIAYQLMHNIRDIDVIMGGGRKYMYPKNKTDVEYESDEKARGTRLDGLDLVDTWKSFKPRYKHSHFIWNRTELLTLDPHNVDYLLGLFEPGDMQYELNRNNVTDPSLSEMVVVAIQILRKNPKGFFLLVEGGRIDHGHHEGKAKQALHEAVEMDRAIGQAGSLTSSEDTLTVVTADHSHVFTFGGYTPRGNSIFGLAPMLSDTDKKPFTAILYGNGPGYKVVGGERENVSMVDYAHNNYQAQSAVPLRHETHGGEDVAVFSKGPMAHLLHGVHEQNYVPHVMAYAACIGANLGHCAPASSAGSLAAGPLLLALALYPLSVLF

[5] = molecular target: Heat shock protein HSP 90-alpha (Homo sapiens, UniProt P07900); type: functional, organism-based
Caspase-7 = molecular target: T3, Caspase-7 (Homo sapiens, UniProt P55210); test: potency of procaspase-7 enzyme activation – biochemical, absorbance, human, dual procaspase-3/-7 activator project, dose response (AID 504330)
T3 sequence (P55210 whole entry): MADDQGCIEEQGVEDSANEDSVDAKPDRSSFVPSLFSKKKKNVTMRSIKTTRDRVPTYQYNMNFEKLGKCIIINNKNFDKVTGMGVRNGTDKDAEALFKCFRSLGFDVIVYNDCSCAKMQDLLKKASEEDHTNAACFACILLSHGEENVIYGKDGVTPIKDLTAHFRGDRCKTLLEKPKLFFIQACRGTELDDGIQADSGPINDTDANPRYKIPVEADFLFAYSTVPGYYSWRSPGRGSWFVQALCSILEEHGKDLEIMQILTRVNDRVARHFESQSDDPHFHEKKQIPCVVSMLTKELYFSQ

Caspase-3 = molecular target: T4, Caspase-3 (Homo sapiens, UniProt P42574); test: activators of human procaspase-3 D3A mutant – biochemical, absorbance, PC-3 D3A mutant, counter-screen for dual procaspase-3/7 activator project, dose response (AID 504328)
T4 sequence (P42574 whole entry): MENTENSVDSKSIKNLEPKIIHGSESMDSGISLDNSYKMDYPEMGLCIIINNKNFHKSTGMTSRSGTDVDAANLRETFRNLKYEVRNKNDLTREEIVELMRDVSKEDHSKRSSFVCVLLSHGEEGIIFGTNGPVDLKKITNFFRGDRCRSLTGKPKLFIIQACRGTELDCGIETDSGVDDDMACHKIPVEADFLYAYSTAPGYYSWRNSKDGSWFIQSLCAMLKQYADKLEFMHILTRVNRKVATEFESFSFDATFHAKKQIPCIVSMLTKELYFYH

Sequence of Procathepsin L (P07711 whole entry): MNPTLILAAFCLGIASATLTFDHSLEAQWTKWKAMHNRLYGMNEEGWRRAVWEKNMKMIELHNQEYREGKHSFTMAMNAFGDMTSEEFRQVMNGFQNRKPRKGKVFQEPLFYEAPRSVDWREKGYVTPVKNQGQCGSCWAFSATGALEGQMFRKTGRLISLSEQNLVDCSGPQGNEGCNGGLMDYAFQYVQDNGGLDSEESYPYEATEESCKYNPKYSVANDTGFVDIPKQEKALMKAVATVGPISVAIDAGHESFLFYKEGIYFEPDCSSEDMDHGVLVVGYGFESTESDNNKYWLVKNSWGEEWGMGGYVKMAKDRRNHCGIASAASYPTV

Structure (SMILES): Cc1cc(OCC(=O)Nn2cnnc2)ccc1Br
- IC50 (Procathepsin L): > 59.6 µM (not active)
- IC50 (Aspartyl aminopeptidase): 2.55 µM (active)

Structure (SMILES): Cc1nn(-c2cc(C(F)(F)F)ccc2Cl)c2nc(C(F)(F)F)nc(O)c12
- IC50 [1]: 22.5 µM (active)

Structure (SMILES): O=C(NCc1ccccc1Cl)C1CCN(S(=O)(=O)c2cccc3nonc23)CC1
- IC50 (cells): 27.2 µM (active)

Structure (SMILES): CN(Cc1nc(O)c2ccccc2n1)C(=O)c1cc(C2CC2)nn1-c1ccccc1
- IC50 (cells): 21.6 µM (active)

Structure (SMILES): O=C(c1cc(-c2ccc(Cl)cc2Cl)n[nH]1)N1CCCC1
- IC50 [2]: > 100 µM (inactive)
- IC50 [3]: > 100 µM (not active)
- IC50 [4]: 6.57 µM (active)

Structure (SMILES): COC(=O)C1=NN(c2ccc(Cl)cc2)C2C(=O)N(c3ccccc3OC)C(=O)C12 (stereo unspecified)
- EC50 (Caspase-7): > 85.3 µM (inactive)
- EC50 (Caspase-3): > 85.3 µM (inactive)

Structure (SMILES): CCOC(=O)c1c(-c2ccc(C)o2)csc1NC(=S)NC(=O)c1ccccc1Br
- IC50 [1]: 37.3 µM (active)

Now from value to compound:

- IC50 (Beta-galactosidase): > 66.6 µM (inactive)
Structure (SMILES): CC(C)Oc1cccc(C(=O)NC(=S)Nc2cccc(C(F)(F)F)c2)c1

- IC50 (Procathepsin L): > 59.6 µM (not active)
- IC50 (Aspartyl aminopeptidase): 1.87 µM (active)
Structure (SMILES): COc1cccc(-c2cc(C(=O)Nn3cnnc3)c3ccccc3n2)c1

- AC50 [5]: 8.18 µM (active)
- IC50 (Beta-galactosidase): > 66.6 µM (inactive)
Structure (SMILES): O=C(Oc1ccc(Cl)c2cccnc12)c1cccnc1
